Experimental data from patent US5506256A, “Proline derivatives possessing prolyl endopeptidase-inhibitory activity” (Yoshitomi Pharmaceutical Industries, Ltd., priority 1990, dated 1996).

Experiments:
prolyl endopeptidase = biological target: T1, prolyl endopeptidase (Rattus norvegicus, UniProt O70196); test: Prolyl endopeptidase-inhibitory activity; type: biochemical; conditions: for inhibition at 1 µM / inhibition at 0.1 µM: read-out: inhibition rate, prolyl endopeptidase; for IC50: prolyl endopeptidase extracted from rat brain, pH 7.0, 30° C., read-out: IC50
T1 construct: prolyl endopeptidase extracted from rat brain; from tissue; host or cells: rat brain
T1 sequence (O70196 whole entry): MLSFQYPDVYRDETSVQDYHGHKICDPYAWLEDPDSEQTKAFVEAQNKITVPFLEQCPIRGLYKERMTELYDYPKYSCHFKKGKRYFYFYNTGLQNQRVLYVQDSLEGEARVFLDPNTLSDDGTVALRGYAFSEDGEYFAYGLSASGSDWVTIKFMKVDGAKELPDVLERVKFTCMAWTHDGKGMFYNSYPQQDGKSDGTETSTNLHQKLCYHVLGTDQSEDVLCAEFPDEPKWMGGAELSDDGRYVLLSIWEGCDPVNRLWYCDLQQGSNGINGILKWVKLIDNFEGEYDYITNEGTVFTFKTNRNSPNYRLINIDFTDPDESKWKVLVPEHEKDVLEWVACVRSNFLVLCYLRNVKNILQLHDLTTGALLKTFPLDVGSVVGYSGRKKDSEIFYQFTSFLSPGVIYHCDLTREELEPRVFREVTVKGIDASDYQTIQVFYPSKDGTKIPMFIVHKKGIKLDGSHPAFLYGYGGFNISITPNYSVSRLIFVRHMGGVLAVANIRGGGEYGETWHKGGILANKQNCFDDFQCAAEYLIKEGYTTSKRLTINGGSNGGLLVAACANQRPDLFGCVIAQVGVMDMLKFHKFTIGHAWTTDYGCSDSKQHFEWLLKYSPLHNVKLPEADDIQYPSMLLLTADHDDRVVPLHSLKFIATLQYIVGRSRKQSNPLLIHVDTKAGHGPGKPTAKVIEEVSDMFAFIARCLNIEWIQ
Procedure: Prolyl endopeptidase-inhibitory activity
A mixture of a 0.1M potassium sodium phosphate buffer (pH 7.0) (2675 μl), a solution of the compounds of the present invention in a 0.1M potassium sodium phosphate buffer (pH 7.0) (100 μl) and a solution of prolyl endopeptidase extracted from rat brain in a 25 mM sodium phosphate buffer (100 μl) [123 unit/1, pH 6.8, containing 1 mM dithiothreitol and 0.5 mM EDTA, prepared by the method described in J. Neurochem., 35, 527 (1980)]was preincubated at 30° C. for 30 minutes. Thereto was added a 0.2 mM solution of 7-(N-succinyl-glycyl-prolyl)-4-methylcoumarinamide (Peptide Institute, INC.) in a 0.1M potassium sodium phosphate buffer (pH 7.0) (125 μl), and the mixture was incubated at 30° C. for 1 hour. The reaction mixture was immersed in ice (0° C.) to terminate the reaction, and the fluorescence (a1) was determined ten minutes later (excitation at 370 nm and emission at 440 nm). Concurrently, there were conducted the experiment wherein, in the above system, the prolyl endopeptidase solution was substituted for a 25 mM sodium phosphate buffer (pH 6.8, containing 1 mM dithiothreitol and 0.5 mM EDTA) and the experiment wherein the solution of the compounds of the present invention was substituted for a 0.1M potassium sodium phosphate buffer (pH 7.0). Each fluorescence (a2 and a3) was determined respectively [See Tanpakushitsu Kakusan Koso, 29, 127 (1984)]. The prolyl endopeptidase-inhibition rate was calculated by the following formula, and IC50, a concentration of a compound producing 50% inhibition, was estimated by semilogarithmic graph paper. [formula] […]

trypsin = biological target: T2, trypsin (Bos taurus, UniProt P00760); test: Determination of trypsin-inhibitory activity; type: biochemical, bovine; conditions: read-out: inhibition rate, trypsin
T2 construct: purchased Sigma; host or cells: bovine pancreas
T2 sequence (P00760 24-246): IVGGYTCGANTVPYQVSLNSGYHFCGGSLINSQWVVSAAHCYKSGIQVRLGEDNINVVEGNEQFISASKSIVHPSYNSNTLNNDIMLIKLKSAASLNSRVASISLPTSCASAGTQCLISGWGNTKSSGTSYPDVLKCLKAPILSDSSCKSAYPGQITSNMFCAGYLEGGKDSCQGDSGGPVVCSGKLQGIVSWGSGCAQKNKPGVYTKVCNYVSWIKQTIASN
Procedure: (§1) The methods for the measurement of inhibitory activities against various proteases and the method for calculating the inhibition rate are as follows.
Determination of trypsin-inhibitory activity
In the present invention, a 50 mM Tris-HCl buffer (pH 8.0) was employed as a buffer for measurement.
To a mixture of the above-mentioned buffer (850 μl), a solution of the compounds of the present invention in the same buffer (50 μl) and a 0.02 μM solution of trypsin (derived from bovine pancreas, Sigma) in the same buffer (50 μl) was added a 200 μM solution of 7-(prolyl-phenylaranyl-arginyl)-4-methylcoumarinamide (Peptide Institute, Inc.) in the same buffer (50 μl),and the mixture was incubated at 30° C. for 1 hour. The reaction mixture was immersed in ice (0° C.) to terminate the reaction, and the fluorescence (b1) was determined 1 hour later (excitation at 370 nm and emission at 440 nm). Concurrently, there were conducted the experiment wherein, in the system above, the trypsin solution was substituted for a buffer alone, and the experiment wherein the solution of the compounds of the present invention was substituted for a buffer above. Each fluorescence (b2 and b3) was determined respectively.
(§2) Using the fluorescence x1, x2 and x3 measured in the abovementioned manner, the inhibitory rate against various proteases was calculated by the following formula where x stands for b, c, d, e or f: [formula]

chymotrypsin = biological target: T3, chymotrypsin (Bos taurus, UniProt P00766); test: Determination of chymotrypsin-inhibitory activity; type: biochemical, bovine; conditions: read-out: inhibition rate, chymotrypsin
T3 construct: purchased Sigma; host or cells: bovine pancreas
Procedure: as §1
Determination of chymotrypsin-inhibitory activity
Similarly, by following the procedure mentioned above, but employing a 50 mM Tris-HCl buffer (pH 8.0) as a buffer for measurement, a 0.2 μM solution of chymotrypsin (derived from bovine pancreas, Sigma) in the same buffer as an enzyme solution and a […] solution of 7-(N-succinyl-leucyl-leucyl-valyl-tyrosyl)-4-methylcoumarinamide (Peptide Institute, Inc.) in the same buffer as a substrate solution, each fluorescence (c1, c2 and c3) was determined, respectively.
as §2

leucine aminopeptidase = test: Determination of leucine aminopeptidase-inhibitory activity; type: biochemical, swine; parameters: unit not given here
Procedure: as §1
Determination of leucine aminopeptidase-inhibitory activity
Similarly, by following the procedure mentioned above, but employing a 50 mM Tris-HCl buffer (pH 8.0) as a buffer for measurement, a […] solution of leucine aminopeptidase (derived from swine kidney, Sigma) in the same buffer as an enzyme solution and a 200 μM solution of 7-leucyl-4-methyl-coumarinamide (Peptide Institute, Inc.) in the same buffer as a substrate solution, each fluorescence (d1, d2 and d3) was determined, respectively.
as §2

elastase = biological target: T4, elastase (Sus scrofa, UniProt P00772); test: Determination of elastase-inhibitory activity; type: biochemical, swine; conditions: read-out: inhibition rate, elastase
T4 construct: purchased Sigma; host or cells: swine pancreas
T4 sequence (P00772 27-266): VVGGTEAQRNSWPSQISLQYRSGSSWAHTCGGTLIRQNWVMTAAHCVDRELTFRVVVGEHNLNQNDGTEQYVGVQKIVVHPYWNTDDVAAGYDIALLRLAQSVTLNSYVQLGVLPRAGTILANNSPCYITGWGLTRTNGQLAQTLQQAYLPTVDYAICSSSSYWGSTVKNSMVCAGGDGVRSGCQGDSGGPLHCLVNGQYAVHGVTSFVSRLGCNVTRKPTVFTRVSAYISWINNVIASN
Procedure: as §1
Determination of elastase-inhibitory activity
Similarly, by following the procedure mentioned above, but employing a 1 mM Tris-HCl buffer (pH 8.5) as a buffer for measurement, a 0.2 μM solution of elastase (derived from swine pancreas, Sigma) in the same buffer as an enzyme solution and a 200 μM solution of 7-(N-succinyl-aranyl-prolyl-aranyl)-4-methylcoumarinamide (Peptide Institute, Inc.) in the same buffer as a substrate solution, each fluorescence (e1, e2 and e3) was determined, respectively.
as §2

cathepsin B = biological target: T5, cathepsin B (Bos taurus, UniProt P07688); test: Determination of cathepsin B-inhibitory activity; type: biochemical, bovine; conditions: read-out: inhibition rate, cathepsin B
T5 construct: purchased Sigma; host or cells: bovine spleen
Procedure: as §1
Determination of cathepsin B-inhibitory activity
Similarly, by following the procedure mentioned above, but employing a 100 mM sodium phosphate buffer (pH 6.0; containing 1.33 mM EDTA Na2) as a buffer for measurement, a 0.02 μM solution of cathepsin B (derived from bovine spleen, Sigma) in the same buffer as an enzyme solution and a 200 μM solution of 7-(N-benzyloxycarbonyl-phenylaranyl-arginyl)-4-methylcoumarinamide (Peptide Institute, Inc.) in the same buffer as a substrate solution, each fluorescence (f1, f2 and f3) was determined, respectively.
as §2

| Structure (SMILES) | inhibition at 1 µM (prolyl endopeptidase) [%] | IC50 (prolyl endopeptidase) [nM] | inhibition at 1 µM (trypsin) [%] | inhibition at 1 µM (chymotrypsin) [%] | inhibition rate, leucine aminopeptidase (leucine aminopeptidase; 1 μM) | inhibition at 1 µM (elastase) [%] | inhibition at 1 µM (cathepsin B) [%] | inhibition at 0.1 µM (prolyl endopeptidase) [%] | inhibition at 0.1 µM (trypsin) [%] | inhibition at 0.1 µM (chymotrypsin) [%] | inhibition rate, leucine aminopeptidase (leucine aminopeptidase; 0.1 μM) | inhibition at 0.1 µM (elastase) [%] | inhibition at 0.1 µM (cathepsin B) [%] |
| --- | --- | --- | --- | --- | --- | --- | --- | --- | --- | --- | --- | --- | --- |
| COc1ccc([S@+]([O-])CC(=O)[C@@H]2CCCN2C(=O)[C@@H]2CCCN2C(=O)OCc2ccccc2)cc1 [Compound 12, (2S)-1-(N-Benzyloxycarbonyl-L-prolyl)-2-{[(R)-4-methoxy-phenylsulfinyl]acetyl}pyrrolidine] | 92 | 20 | 0 | 0 | 0 | 0 | 0 | – | – | – | – | – | – |
| Cc1ccc([S@@+]([O-])CC(=O)[C@@H]2CCCN2C(=O)[C@@H]2CCCN2C(=O)OCc2ccccc2)cc1 [Compound 13, (2S)-1-(N-Benzyloxycarbonyl-L-prolyl)-2-{[(S)-p-tolyl-sulfinyl]acetyl}pyrrolidine] | – | 0.3 | – | – | – | – | – | 98 | 0 | 0 | 0 | 0 | 0 |
| Cc1ccc([S@+]([O-])CC(=O)[C@@H]2CCCN2C(=O)[C@@H]2CCCN2C(=O)OCc2ccccc2)cc1 [Compound 14] | – | 1.5 | – | – | – | – | – | 97 | 0 | 0 | 0 | 0 | 0 |
| COc1ccc([S@@+]([O-])CC(=O)[C@@H]2CCCN2C(=O)[C@@H]2CCCN2C(=O)CCc2ccccc2)cc1 [Compound 15] | – | 2.5 | – | – | – | – | – | 98 | 0 | 0 | 0 | 0 | 0 |
| Cc1ccc([S@@+]([O-])CC(=O)[C@@H]2CCCN2C(=O)[C@@H]2CCCN2C(=O)CCc2ccccc2)cc1 [Compound 16, (2S)-1-[N-(3-Phenylpropionyl)-L-prolyl]-2-{[(S)-p-tolylsulfinyl]acetyl}pyrrolidine] | – | 1.5 | – | – | – | – | – | 99 | 0 | 0 | 0 | 0 | 0 |
| O=C(C[S@+]([O-])c1ccccc1)[C@@H]1CCCN1C(=O)[C@@H]1CCCN1C(=O)CCc1ccccc1 [Compound 17, (2S)-1-[N-(3-Phenylpropionyl)-L-prolyl]-2-{[(S)-phenylsulfinyl]acetyl}pyrrolidine] | – | 0.5 | – | – | – | – | – | 99 | 0 | 0 | 0 | 0 | 0 |
| COc1ccc(OCC(=O)[C@@H]2CCCN2C(=O)[C@@H]2CCCN2C(=O)OCc2ccccc2)cc1 [Compound 18, (2S)-1-(N-Benzyloxycarbonyl-L-prolyl)-2-[(4-methoxyphenoxy)-acetyl]pyrrolidine] | – | 1.5 | – | – | – | – | – | 93 | 0 | 0 | 0 | 0 | 0 |
| O=C(COc1ccccc1)[C@@H]1CCCN1C(=O)[C@@H]1CCCN1C(=O)CCc1ccccc1 [Compound 19, (2S)-2-(Phenoxyacetyl)-1-[N-(3-phenylpropionyl)-L-prolyl]-pyrrolidine] | 98 | 15 | 0 | 0 | 0 | 0 | 0 | – | – | – | – | – | – |
| COc1ccc(OCC(=O)[C@@H]2CCCN2C(=O)[C@@H]2CCCN2C(=O)CCc2ccccc2)cc1 [Compound 20, (2S)-2-[(4-Methoxyphenoxy)acetyl]-1-[N-(3-phenylpropionyl)-L-prolyl]pyrrolidine] | 96 | 40 | 0 | 0 | 0 | 0 | 0 | – | – | – | – | – | – |
| O=C(COc1ccccc1)[C@@H]1CCCN1C(=O)[C@@H]1CCCN1C(=O)NCc1ccccc1 [Compound 21, (2S)-1-(N-Benzylaminocarbonyl-L-prolyl)-2-(phenoxyacetyl)-pyrrolidine] | 99 | 15 | 0 | 0 | 0 | 0 | 0 | – | – | – | – | – | – |
| COc1ccc(OCC(=O)[C@@H]2CCCN2C(=O)[C@@H]2CCCN2C(=O)NCc2ccccc2)cc1 [Compound 22, (2S)-1-(N-Benzylaminocarbonyl-L-prolyl)-2-(4-methoxyphenoxyacetyl)pyrrolidine] | 97 | 25 | 0 | 0 | 0 | 0 | 0 | – | – | – | – | – | – |
| COc1ccc([S@@+]([O-])CC(=O)[C@@H]2CCCN2C(=O)[C@@H]2CCCN2C(=O)NCc2ccccc2)cc1 [Compound 23, (2S)-1-(N-Benzylaminocarbonyl-L-prolyl)-2-{[(S)-4-methoxyphenylsulfinyl]acetyl}pyrrolidine] | 99 | 15 | 0 | 0 | 0 | 0 | 0 | – | – | – | – | – | – |
